The test has as its target T1, Angiotensin II receptor (AT-1) type-1 (Rattus norvegicus, UniProt P29089+P25095).
T1 sequence (P29089 whole entry): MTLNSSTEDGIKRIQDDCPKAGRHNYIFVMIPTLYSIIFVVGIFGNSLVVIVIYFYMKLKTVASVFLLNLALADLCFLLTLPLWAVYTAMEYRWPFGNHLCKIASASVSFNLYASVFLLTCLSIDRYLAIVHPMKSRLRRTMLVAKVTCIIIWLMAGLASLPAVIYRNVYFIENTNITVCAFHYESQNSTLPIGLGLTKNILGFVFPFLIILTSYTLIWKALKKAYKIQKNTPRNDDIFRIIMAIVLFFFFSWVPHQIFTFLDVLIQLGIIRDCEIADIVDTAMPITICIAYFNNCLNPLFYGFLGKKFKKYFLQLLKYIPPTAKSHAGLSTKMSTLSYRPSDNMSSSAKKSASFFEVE
T1 sequence (P25095 whole entry): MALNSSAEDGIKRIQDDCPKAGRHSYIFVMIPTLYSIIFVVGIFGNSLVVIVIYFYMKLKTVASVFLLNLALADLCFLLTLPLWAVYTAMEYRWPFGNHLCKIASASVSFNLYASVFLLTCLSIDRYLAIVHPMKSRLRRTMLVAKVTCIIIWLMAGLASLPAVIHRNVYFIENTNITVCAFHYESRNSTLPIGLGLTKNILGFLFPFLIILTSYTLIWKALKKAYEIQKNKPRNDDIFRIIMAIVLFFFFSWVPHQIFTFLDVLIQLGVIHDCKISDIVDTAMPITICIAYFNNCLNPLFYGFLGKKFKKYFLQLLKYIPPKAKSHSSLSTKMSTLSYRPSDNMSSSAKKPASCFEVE
In words: Displacement of [125I]-angiotensin 2 from angiotensin AT1 receptor in Rattus norvegicus (rat) uterine membranes.
`CCCCc1nn(CC(=O)C23CC4CC(CC(C4)C2)C3)c(=O)n1Cc1ccc(-c2ccccc2-c2nn[nH]n2)cc1` gave an IC50 of 25 nM and a pIC50 of 7.602.

`CCCCc1nn(CC(OCC)c2ccccc2)c(=O)n1Cc1ccc(-c2ccccc2-c2nn[nH]n2)cc1` (stereo unspecified) gave an IC50 of 15 nM and a pIC50 of 7.824.

The molecule `CCCCc1nn(CC(OCC(=O)O)c2ccccc2)c(=O)n1Cc1ccc(-c2ccccc2-c2nn[nH]n2)cc1` (stereo unspecified) came in with an IC50 of 30 nM and a pIC50 of 7.523.

For the molecule `CCCCc1nn(CCCCC(=O)O)c(=O)n1Cc1ccc(-c2ccccc2-c2nn[nH]n2)cc1`, the IC50 worked out at 12 nM and the pIC50 stood at 7.921.

In turn, `CCCCc1nn(CC(OC)c2ccccc2)c(=O)n1Cc1ccc(-c2ccccc2-c2nn[nH]n2)cc1` (stereo unspecified) gave an IC50 of 12 nM and a negative-log IC50 (pIC50) of 7.921.

For `CCCCc1nn(CC(O)c2ccccc2)c(=O)n1Cc1ccc(-c2ccccc2-c2nn[nH]n2)cc1` (stereo unspecified), the IC50 is listed as 3.6 nM and the pIC50 was 8.444.

The molecule `CCCCc1nn(CC(O)c2cc(OC)ccc2OC)c(=O)n1Cc1ccc(-c2ccccc2-c2nn[nH]n2)cc1` (stereo unspecified) had an IC50 of 22 nM and a pIC50 of 7.658.

In the case of `CCCCc1nn(C(Cc2ccccc2)C(=O)c2ccccc2)c(=O)n1Cc1ccc(-c2ccccc2-c2nn[nH]n2)cc1` (stereo unspecified), the IC50 is given as 5800 nM and the pIC50 came out at 5.237.

Molecule `CCCCc1nn(CCC2CCCCC2)c(=O)n1Cc1ccc(-c2ccccc2-c2nn[nH]n2)cc1` returned an IC50 of 18 nM and a pIC50 of 7.745.

For the molecule `CCCCc1nn(CC(=O)OC(C)(C)C)c(=O)n1Cc1ccc(-c2ccccc2-c2nn[nH]n2)cc1`, the IC50 came out at 16 nM and the pIC50 is 7.796.

In turn, `CCCCc1nn(CC(OCCC)c2ccccc2)c(=O)n1Cc1ccc(-c2ccccc2-c2nn[nH]n2)cc1` (stereo unspecified) showed a half-maximal inhibitory concentration (IC50) of 45 nM and a pIC50 of 7.347.

On to `CCCCc1nn(C(CC(=O)OCC)C(=O)c2ccccc2)c(=O)n1Cc1ccc(-c2ccccc2-c2nn[nH]n2)cc1` (stereo unspecified), for which the IC50 was 36 nM and the pIC50 came out at 7.444.

In turn, `CCCCc1nn(CCCc2ccccc2)c(=O)n1Cc1ccc(-c2ccccc2-c2nn[nH]n2)cc1` had an IC50 of 18 nM and a pIC50 of 7.745.

Molecule `CCCCc1nn(CCc2ccccc2)c(=O)n1Cc1ccc(-c2ccccc2-c2nn[nH]n2)cc1` registered an IC50 of 3.1 nM and a pIC50 of 8.509.

On to `CCCCc1nn(CC(=O)c2cc(OC)ccc2OC)c(=O)n1Cc1ccc(-c2ccccc2-c2nn[nH]n2)cc1`, for which the IC50 turned out to be 21 nM and the pIC50 is 7.678.

For the molecule `CCCCc1nn(Cc2ccccc2)c(=O)n1Cc1ccc(-c2ccccc2-c2nn[nH]n2)cc1`, the IC50 came to 16 nM and the pIC50 came to 7.796.

`CCCCc1nn(CC(OCc2ccccc2)c2ccccc2)c(=O)n1Cc1ccc(-c2ccccc2-c2nn[nH]n2)cc1` (stereo unspecified): the IC50 amounted to 280 nM and the pIC50 is on record as 6.553.

`CCCCc1nn(CC(OCC(=O)OCC)c2ccccc2)c(=O)n1Cc1ccc(-c2ccccc2-c2nn[nH]n2)cc1` (stereo unspecified) registered an IC50 of 180 nM and a negative-log IC50 (pIC50) of 6.745.

`CCCCc1nn(CC(=O)OCC)c(=O)n1Cc1ccc(-c2ccccc2-c2nn[nH]n2)cc1`: the IC50 was 9 nM and the negative logarithm of the IC50 (pIC50) was determined as 8.046.

`CCCCCCCCn1nc(CCCC)n(Cc2ccc(-c3ccccc3-c3nn[nH]n3)cc2)c1=O`: the IC50 came out at 170 nM and the negative-log IC50 (pIC50) turned out to be 6.77.

Turning to `CCCCc1nn(CC(=O)O)c(=O)n1Cc1ccc(-c2ccccc2-c2nn[nH]n2)cc1`, the IC50 is given as 91 nM and the pIC50 is 7.041.

The molecule `CCCCc1nn(CCCCCC(=O)OCC)c(=O)n1Cc1ccc(-c2ccccc2-c2nn[nH]n2)cc1` showed an IC50 of 9.8 nM and a pIC50 of 8.009.

Molecule `CCCCc1nn(CCCCCC(=O)O)c(=O)n1Cc1ccc(-c2ccccc2-c2nn[nH]n2)cc1` had an IC50 of 17 nM and a pIC50 of 7.77.

`CCCCCCn1nc(CCCC)n(Cc2ccc(-c3ccccc3-c3nn[nH]n3)cc2)c1=O` displayed an IC50 of 8.7 nM and a negative-log IC50 (pIC50) of 8.06.

In turn, `CCCCc1nn(CCCC)c(=O)n1Cc1ccc(-c2ccccc2C(=O)O)cc1` came in with an IC50 of 101 nM and a pIC50 of 6.996.

On to `CCCCc1nn(C(C)(C)C(=O)c2ccccc2)c(=O)n1Cc1ccc(-c2ccccc2-c2nn[nH]n2)cc1`, for which the IC50 came out at 43 nM and the pIC50 is recorded as 7.367.

As to `CCCCc1nnc(O)n1Cc1ccc(-c2ccccc2-c2nn[nH]n2)cc1`, the IC50 is 42 nM and the pIC50 worked out at 7.377.

Turning to `CCCCCn1nc(CCCC)n(Cc2ccc(-c3ccccc3-c3nn[nH]n3)cc2)c1=O`, the IC50 is on record as 5.6 nM and the pIC50 came to 8.252.

Molecule `CCCCc1nnc(O)n1Cc1ccc(-c2ccccc2C(=O)O)cc1` came in with an IC50 of 1500 nM and a pIC50 of 5.824.

For `CCCCc1nn(CCC(C)CC(C)(C)C)c(=O)n1Cc1ccc(-c2ccccc2-c2nn[nH]n2)cc1` (stereo unspecified), the IC50 worked out at 35 nM and the pIC50 is 7.456.

`CCCCc1nn(CCC)c(=O)n1Cc1ccc(-c2ccccc2-c2nn[nH]n2)cc1` showed an IC50 of 15 nM and a pIC50 of 7.824.

In turn, `CCCCc1nn(Cc2ccc3ccccc3c2)c(=O)n1Cc1ccc(-c2ccccc2-c2nn[nH]n2)cc1` yielded an IC50 of 280 nM and a negative-log IC50 (pIC50) of 6.553.

For `CCCCc1nn(C(C)CC)c(=O)n1Cc1ccc(-c2ccccc2-c2nn[nH]n2)cc1` (stereo unspecified), the IC50 stood at 10 nM and the negative-log IC50 (pIC50) turned out to be 8.
